Patent publication US20220280572A1, “METHODS OF TREATING VASCULAR DISEASES” (Astellas Institute for Regenerative Medicine, priority 2019, published 2022)

Test system: lung microvasculature
Assay: Micro CT scanning of lungs from the SuHx model
Format: in vivo, rat
Settings: SuHx rats; sildenafil treatment
Protocol: Endothelial progenitor cells are reported to preserve microvasculature in MCT treated lung (Zhao et al. Cir. Res. 96:442-450 (2005)). Therefore, micro CT scanning was performed on the lungs from the SuHx model treated with Nx control, vehicle, sildenafil, and 1 million and 5 million GMP1-HE cells.

CCCc1nn(C)c2c(=O)[nH]c(-c3cc(S(=O)(=O)N4CCN(C)CC4)ccc3OCC)nc12 [sildenafil]
capillary perfusion (microCT): modest improvement
